pIC50: −log10 of the molar value.
How the values were obtained:
[1] = target: T1, human factor XIa (Homo sapiens, UniProt P03951); test: Measurement of FXIa inhibition (fluorogenic peptide substrate, AMC cleavage); assay type: biochemical; details: factor XIa from Kordia 0.45 nM; substrate Boc-Glu(OBzl)-Ala-Arg-AMC 10 μM; 30 min at 22° C.; in some cases averages from multiple determinations
T1 construct: purchased Kordia
Method: (§1) The factor XIa inhibition of the substances according to the invention is determined using a biochemical test system which utilizes the reaction of a peptidic factor XIa substrate to determine the enzymatic activity of human factor XIa. Here, factor XIa cleaves from the peptic factor XIa substrate the C-terminal aminomethylcoumarin (AMC), the fluorescence of which is measured. The determinations are conducted in microtitre plates.
Test substances are dissolved in dimethyl sulfoxide and serially diluted in dimethyl sulfoxide (3000 μM to 0.0078 μM; resulting final concentrations in the test: 50 μM to 0.00013 μM). 1 μl of the diluted substance solutions is placed into each of the wells of white microtitre plates from Greiner (384 wells). 20 μl of assay buffer (50 mM of Tris/HCl pH 7.4; 100 mM of sodium chloride; 5 mM of calcium chloride; 0.1% of bovine serum albumin) and 20 μl of factor XIa from Kordia (0.45 nM in assay buffer) are then added successively. After 15 min of incubation, the enzyme reaction is started by addition of 20 μl of the factor XIa substrate Boc-Glu(OBzl)-Ala-Arg-AMC dissolved in assay buffer (10 μM in assay buffer) from Bachem, the mixture is incubated at room temperature (22° C.) for 30 min and fluorescence is then measured (excitation: 360 nm, emission: 460 nm). The measured emissions of the test batches with test substance are compared to those of control batches without test substance (only dimethyl sulfoxide instead of test substance in dimethyl sulfoxide), and IC50 values are calculated from the concentration/activity relationships. Activity data from this test are given in Table A below (in some cases as averages from multiple individual determinations): […]

[2] = target: T2, human plasma kallikrein (Homo sapiens, UniProt P03952); test: Determination of the plasma kallikrein activity (fluorogenic peptide substrate, AMC cleavage); assay type: biochemical; details: plasma kallikrein from Kordia 0.6 nM; substrate H-Pro-Phe-Arg-AMC 10 μM; 30 min at 22° C.; in some cases averages from multiple determinations
T2 construct: purchased Kordia
T2 sequence (P03952 391-638 limits assumed): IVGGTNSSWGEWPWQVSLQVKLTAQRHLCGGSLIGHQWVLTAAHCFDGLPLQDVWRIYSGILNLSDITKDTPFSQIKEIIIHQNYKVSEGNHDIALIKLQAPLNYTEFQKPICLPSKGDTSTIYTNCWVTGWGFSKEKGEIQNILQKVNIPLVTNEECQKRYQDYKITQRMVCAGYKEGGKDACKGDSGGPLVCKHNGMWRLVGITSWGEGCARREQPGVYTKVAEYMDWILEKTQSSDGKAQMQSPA
T2 sequence (P03952 20-390 partner limits assumed): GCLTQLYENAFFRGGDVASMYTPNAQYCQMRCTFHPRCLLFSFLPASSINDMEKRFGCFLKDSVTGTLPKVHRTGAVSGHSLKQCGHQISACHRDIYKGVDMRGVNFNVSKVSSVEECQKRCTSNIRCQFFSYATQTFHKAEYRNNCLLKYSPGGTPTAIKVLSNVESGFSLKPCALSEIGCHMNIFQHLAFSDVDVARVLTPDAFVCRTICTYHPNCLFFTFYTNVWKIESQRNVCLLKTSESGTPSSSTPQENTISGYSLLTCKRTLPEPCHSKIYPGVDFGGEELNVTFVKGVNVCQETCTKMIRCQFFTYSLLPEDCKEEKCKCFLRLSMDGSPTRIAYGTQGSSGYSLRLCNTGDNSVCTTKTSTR
Method: as §1, with “To determine the plasma kallikrein” for “The factor XIa”, “invention,” for “invention is determined using”, “system is used” for “system”, “plasma kallikrein” for “factor XIa”, “plasma kallikrein.” for “factor XIa.”
Test substances are dissolved in dimethyl sulfoxide and serially diluted in dimethyl sulfoxide (3000 μM to 0.0078 μM; resulting final concentrations in the test: 50 μM to 0.00013 μM). 1 μl of the diluted substance solutions is placed into each of the wells of white microtitre plates from Greiner (384 wells). 20 μl of assay buffer (50 mM Tris/HCl pH 7.4; 100 mM sodium chloride solution; 5 mM calcium chloride solution; 0.1% of bovine serum albumin) and 20 μl of plasma kallikrein from Kordia (0.6 nM in assay buffer) are then added successively. After 15 min of incubation, the enzyme reaction is started by addition of 20 μl of the substrate H-Pro-Phe-Arg-AMC dissolved in assay buffer (10 μM in assay buffer) from Bachem, the mixture is incubated at room temperature (22° C.) for 30 min and fluorescence is then measured (excitation: 360 nm, emission: 460 nm). The measured emissions of the test batches with test substance are compared to those of control batches without test substance (only dimethyl sulfoxide instead of test substance in dimethyl sulfoxide), and IC50 values are calculated from the concentration/activity relationships. Activity data from this test are given in Table B below (in some cases as averages from multiple individual determinations): […]

T1 sequence (P03951 388-625 limits assumed): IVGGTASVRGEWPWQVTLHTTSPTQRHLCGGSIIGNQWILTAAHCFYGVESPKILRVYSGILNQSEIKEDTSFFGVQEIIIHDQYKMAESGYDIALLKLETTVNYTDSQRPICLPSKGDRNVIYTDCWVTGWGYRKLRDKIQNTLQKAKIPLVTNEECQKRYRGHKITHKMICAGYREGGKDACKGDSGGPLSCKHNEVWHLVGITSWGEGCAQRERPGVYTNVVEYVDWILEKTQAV
T1 sequence (P03951 19-387 partner limits assumed): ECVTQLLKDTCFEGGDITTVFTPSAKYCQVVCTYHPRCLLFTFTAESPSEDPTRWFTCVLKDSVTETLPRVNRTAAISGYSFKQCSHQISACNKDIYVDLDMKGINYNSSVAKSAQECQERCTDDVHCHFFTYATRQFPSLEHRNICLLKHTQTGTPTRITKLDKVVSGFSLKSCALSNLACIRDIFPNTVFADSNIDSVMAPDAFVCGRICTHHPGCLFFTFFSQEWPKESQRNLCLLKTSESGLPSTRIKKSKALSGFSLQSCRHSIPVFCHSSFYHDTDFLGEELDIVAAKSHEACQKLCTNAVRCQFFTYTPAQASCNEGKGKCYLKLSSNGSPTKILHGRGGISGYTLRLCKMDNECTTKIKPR

pIC50 [1]	pIC50 [2]	SMILES
7.72	6.89	CNC(=O)c1ccc(NC(=O)C(CCOC)n2cc(OC)c(-c3cc(Cl)ccc3OCC(F)(F)F)cc2=O)cc1F (racemic) [Example 6, 4-[(2-{4-[5-Chloro-2-(2,2,2-trifluoroethoxy)phenyl]-5-methoxy-2-oxopyridin-1(2H)-yl}-4-methoxybutanoyl)amino]-2-fluoro-N-methylbenzamide]
8.00	7.17	COc1cn(C(Cc2ccn(C)n2)C(=O)Nc2ccc(C(N)=O)c(F)c2)c(=O)cc1-c1cc(Cl)ccc1OCC(F)(F)F (racemic) [Example 16, 4-{[2-{4-[5-Chloro-2-(2,2,2-trifluoroethoxy)phenyl]-5-methoxy-2-oxopyridin-1 (2H)-yl}-3-(1-methyl-1H-pyrazol-3-yl)propanoyl]amino}-2-fluorobenzamide]
8.66	6.82	COc1cc(NC(=O)C(C[C@@H]2CCCCO2)n2cc(OC)c(-c3cc(Cl)ccc3OCC(F)(F)F)cc2=O)ccc1C(=O)O (stereo partly drawn) [Example 76, 4-({2-{4-[5-Chloro-2-(2,2,2-trifluoroethoxy)phenyl]-5-methoxy-2-oxopyridin-1(2H)-yl}-3-[(2S)-tetrahydro-2H-pyran-2-yl]propanoyl}amino)-2-methoxybenzoic acid]
8.62	6.89	COc1cn(C(C[C@H](C)OC)C(=O)Nc2ccc(C(=O)O)cc2)c(=O)cc1-c1cc(Cl)ccc1OCC(F)(F)F (mixture of isomers) [Example 35, 4-{[(4S)-2-{4-[5-Chloro-2-(2,2,2-trifluoroethoxy)phenyl]-5-methoxy-2-oxopyridin-1(2H)-yl}-4-methoxypentanoyl]amino}benzoic acid]
8.24	7.18	COc1cn(C(CC2COCCO2)C(=O)Nc2ccc3nn(C)cc3c2)c(=O)cc1-c1cc(Cl)ccc1OCC(F)F (centres unmarked) [Example 33, 2-{4-[5-Chloro-2-(2,2-difluoroethoxy)phenyl]-5-methoxy-2-oxopyridin-1(2H)-yl}-3-(1,4-dioxan-2-yl)-N-(2-methyl-2H-indazol-5-yl)propanamide]
8.33	7.13	COc1cn(C(CC2COCCO2)C(=O)Nc2ccc(C(N)=O)nc2)c(=O)cc1-c1cc(Cl)ccc1OCC(F)F (centres unmarked) [Example 30, 5-{[2-{4-[5-Chloro-2-(2,2-difluoroethoxy)phenyl]-5-methoxy-2-oxopyridin-1(2H)-yl}-3-(1,4-dioxan-2-yl)propanoyl]amino}pyridine-2-carboxamide]
8.19	7.31	CNC(=O)c1ccc(NC(=O)C(CCOC)n2cc(OC)c(-c3cc(Cl)ccc3OCC(F)(F)F)cc2=O)cn1 (racemic) [Example 4, 5-[(2-{4-[5-Chloro-2-(2,2,2-trifluoroethoxy)phenyl]-5-methoxy-2-oxopyridin-1(2H)-yl}-4-methoxybutanoyl)amino]-N-methylpyridine-2-carboxamide]
8.05	6.82	CNC(=O)c1ccc(NC(=O)C(CC2COCCO2)n2cc(OC)c(-c3cc(Cl)ccc3OCCF)cc2=O)cn1 (centres unmarked) [Example 46, 5-{[2-{4-[5-Chloro-2-(2-fluoroethoxy)phenyl]-5-methoxy-2-oxopyridin-1(2H)-yl}-3-(1,4-dioxan-2-yl)propanoyl]amino}-N-methylpyridine-2-carboxamide]
9.02	8.03	COc1cn(C(Cc2ccn(C)n2)C(=O)Nc2ccc(C(=O)O)cc2)c(=O)cc1-c1cc(Cl)ccc1OCC(F)(F)F (single isomer, unassigned) [Example 43, 4-{[2-{4-[5-Chloro-2-(2,2,2-trifluoroethoxy)phenyl]-5-methoxy-2-oxopyridin-1(2H)-yl}-3-(1-methyl-1H-pyrazol-3-yl)propanoyl]amino}benzoic acid]
8.74	7.49	COc1cn(C(CCOC2(C)CCC2)C(=O)Nc2ccc(C(=O)O)cc2)c(=O)cc1-c1cc(Cl)ccc1OCC(F)(F)F (racemic) [Example 55, 4-[(2-{4-[5-Chloro-2-(2,2,2-trifluoroethoxy)phenyl]-5-methoxy-2-oxopyridin-1(2H)-yl}-4-[(1-methylcyclobutyl)oxy]butanoyl)amino]benzoic acid]
7.40	6.85	CCCC(C(=O)Nc1ccc2nn(C)cc2c1)n1cc(OC)c(-c2cc(Cl)ccc2OCC(F)(F)F)cc1=O (racemic) [Example 65, 2-{4-[5-Chloro-2-(2,2,2-trifluoroethoxy)phenyl]-5-methoxy-2-oxopyridin-1(2H)-yl}-N-(2-methyl-2H-indazol-5-yl)pentanamide]
7.89	7.03	COc1cn(C(CCOC(F)(F)F)C(=O)Nc2ccc3nn(C)cc3c2)c(=O)cc1-c1cc(Cl)ccc1OCC(F)(F)F (racemic) [Example 38, 2-{4-[5-Chloro-2-(2,2,2-trifluoroethoxy)phenyl]-5-methoxy-2-oxopyridin-1(2H)-yl}-N-(2-methyl-2H-indazol-5-yl)-4-(trifluoromethoxy)butanamide]
7.74	6.77	CNC(=O)c1ccc(NC(=O)C(C[C@H]2CCCCO2)n2cc(OC)c(-c3cc(Cl)ccc3OCC(F)(F)F)cc2=O)cn1 (stereo partly drawn) [Example 22, 5-[(2-{4-[5-Chloro-2-(2,2,2-trifluoroethoxy)phenyl]-5-methoxy-2-oxopyridin-1(2H)-yl}-3-[(2R)-tetrahydro-2H-pyran-2-yl]propanoyl)amino]-N-methylpyridine-2-carboxamide]
8.66	7.64	COc1cn(C(C[C@@H]2CCCCO2)C(=O)Nc2ccc3nc(C(=O)O)cn3c2)c(=O)cc1-c1cc(Cl)ccc1OCC(F)(F)F (some centres unmarked) [Example 77]
8.80	7.10	COc1cn(C(CC2COCCO2)C(=O)Nc2ccc(C(=O)O)cc2)c(=O)cc1-c1cc(Cl)ccc1OCC(F)F (centres unmarked) [Example 29, 4-{[2-{4-[5-Chloro-2-(2,2-difluoroethoxy)phenyl]-5-methoxy-2-oxopyridin-1(2H)-yl}-3-(1,4-dioxan-2-yl)propanoyl]amino}benzoic acid]

SMILES	pIC50 [1]	pIC50 [2]
COc1cn(C(CCOC(C)(C)C)C(=O)Nc2ccc(C(N)=O)nc2)c(=O)cc1-c1cc(Cl)ccc1OCC(F)(F)F (racemic) [Example 11, 5-[(4-tert-Butoxy-2-{4-[5-chloro-2-(2,2,2-trifluoroethoxy)phenyl]-5-methoxy-2-oxopyridin-1(2H)-yl}butanoyl)amino]pyridine-2-carboxamide]	7.74	7.06
COc1cn(C(CCOC(C)(C)C)C(=O)Nc2ccc(C(N)=O)c(F)c2)c(=O)cc1-c1cc(Cl)ccc1OCC(F)(F)F (racemic) [Example 10, 4-[(4-tert-Butoxy-2-{4-[5-chloro-2-(2,2,2-trifluoroethoxy)phenyl]-5-methoxy-2-oxopyridin-1(2H)-yl}butanoyl)amino]-2-fluorobenzamide]	7.82	7.11
COc1cn(C(CCOC2(C)CCC2)C(=O)Nc2ccc(C(N)=O)c(F)c2)c(=O)cc1-c1cc(Cl)ccc1OCC(F)(F)F (racemic) [Example 59, 4-[[2-[4-[5-Chloro-2-(2,2,2-trifluoroethoxy)phenyl]-5-methoxy-2-oxo-1-pyridyl]-4-(1-methylcyclobutoxy)butanoyl]amino]-2-fluorobenzamide]	7.85	6.96
COc1cn(C(CCOC(C)(C)C)C(=O)Nc2ccc3nn(C)cc3c2)c(=O)cc1-c1cc(Cl)ccc1OCC(F)F (racemic) [Example 28, 4-tert-Butoxy-2-{4-[5-chloro-2-(2,2-difluoroethoxy)phenyl]-5-methoxy-2-oxopyridin-1(2H)-yl}-N-(2-methyl-2H-indazol-5-yl)butanamide]	7.55	6.92

From patent US20180250280A1 (BAYER PHARMA AKTIENGESELLSCHAFT, priority 2015, published 2018)
